PubChem BioAssay (NCI)
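Five concentrations, 48 hours, 96-well plates. The concentration for 50% growth inhibition is given as GI50. TGI marks complete inhibition of growth.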

Columns and labels:
Assay in all cases: NCI tumour cell line growth inhibition, 48 h
HS 578T breast = test system: HS 578T breast
HCC-2998 colon = test system: HCC-2998 colon
UO-31 renal = test system: UO-31 renal
PC-3 prostate = test system: PC-3 prostate
NCI/ADR-RES ovarian = test system: NCI/ADR-RES ovarian
LOX IMVI melanoma = test system: LOX IMVI melanoma
MCF7 breast = test system: MCF7 breast
SK-MEL-2 melanoma = test system: SK-MEL-2 melanoma
BT-549 breast = test system: BT-549 breast
OVCAR-4 ovarian = test system: OVCAR-4 ovarian

Structure (SMILES)	GI50 (HS 578T breast) [µM]	TGI (HS 578T breast) [µM]	GI50 (HCC-2998 colon) [µM]	TGI (HCC-2998 colon) [µM]	GI50 (UO-31 renal) [µM]	TGI (UO-31 renal) [µM]	GI50 (PC-3 prostate) [µM]	TGI (PC-3 prostate) [µM]	GI50 (NCI/ADR-RES ovarian) [µM]	TGI (NCI/ADR-RES ovarian) [µM]	GI50 (LOX IMVI melanoma) [µM]	TGI (LOX IMVI melanoma) [µM]	GI50 (MCF7 breast) [µM]	TGI (MCF7 breast) [µM]	GI50 (SK-MEL-2 melanoma) [µM]	TGI (SK-MEL-2 melanoma) [µM]	GI50 (BT-549 breast) [µM]	TGI (BT-549 breast) [µM]	GI50 (OVCAR-4 ovarian) [µM]	TGI (OVCAR-4 ovarian) [µM]
Cc1nc(SCC(=O)Nc2nc(-c3ccc(Cl)cc3)cs2)n(Nc2ccccc2)c1C	3.42	21.6	10.6	29.5	3.59	37.7	2.34	11	2.6	7.18	1.78	3.72	2.94	11.4	10.1	27.6	7.02	20.9	4.6	22.1
COc1cc(OC)cc(N(CCNC(C)C)c2ccc3ncc(-c4cnn(C)c4)nc3c2)c1	1.49	6.19	11.2	24.9	2.23	12.3	6.54	23.2	5.8	22	2.71	11.8	10.5	24.3	7.31	25	2.78	17.9	2.25	14.8
CC[N+](CC)=c1sc2c(s1)C(c1ccc(Cl)cc1)Oc1ccc(Cl)cc1-2 (stereo not given)	1.43	5.59	1.52	3.74	2.82	15.4	1.38	3.28	21.6	67.2	1.51	3.22	1.54	4.73	1.03	2.81	0.749	2.31	3.03	12.7
COC(=O)[C@@H](C)C[C@H](Cc1ccccc1)NC(=O)c1csc(CC[C@H](C(C)C)N(C)C(=O)[C@@H](NC(=O)[C@H]2CCCCN2C)C(C)C)n1	0.761	15.8	0.562	> 33.3	1.66	> 33.3	0.383	> 33.3	3.46	> 33.3	0.373	> 33.3	0.078	> 33.3	0.149	> 33.3	0.179	3.81	0.991	> 33.3
O=C(CO[N+](=O)[O-])Nc1ccc(C(=O)/C=C/c2ccc(Cl)cc2)cc1	2.85	14.2	1.75	3.64	1.52	12.1	2.74	14.8	3.87	> 100	1.59	3.51	0.666	6.44	9.69	23.3	1.86	5	4.06	21
COc1ccc(C(=O)/C=C/c2ccc(C)cc2)cc1OC	12.5	30.3	14.4	27.4	11	26.8	15.4	32.4	11.7	28.3	13	25.6	3.09	15.1	15.9	40.1	14.9	51.5	12.2	24.7
Oc1[nH]c2ccccc2c1N=Nc1ccccn1		> 100		82.8		33.7		> 100		28		> 100		> 100		> 100		> 100		45.6
S=C(Nc1ccc(Br)cc1)Nc1ccc(Br)cc1	85	> 100	5.04	> 100	12.7	> 100	4.17	> 100	4.32	> 100	5.29	> 100	3.87	> 100	7.93	> 100	44.2	> 100	7.51	> 100
CC(=O)O[C@H]1CC[C@@]2(C)C(=CC[C@H]3[C@@H]4CC[C@H](c5cc(C(F)(F)F)n(C(C)=O)n5)[C@@]4(C)CC[C@@H]32)C1		> 60.8		27.3		3.23		16		24		22.4		18.7		20.8		25.8		15.6
CCN(Cc1cccc(F)c1)c1ccc(CO)c(Cl)c1	19.5	74.4	10.7	35.5	5.09	58.7	21.8	> 82.5	15.9	53.6	14.1	28.8	0.216	17.8	4.54	25.1	11	28.3	0.318	15.1
Cc1nn(-c2nc3ccccc3[nH]2)c(N)c1-c1ccc(Cl)cc1	9.24	> 100	5.12	> 100	3.79	> 100	2.97	> 100	4.84	> 100	5.02	> 100	4.31	> 100	5.88	> 100	12.9	> 100	5.1	> 100
C#CCOc1cccc(-c2ncnc3cc(NC(=O)CCl)ccc23)c1	1.92	14.5	1.09	2.75	0.36	2.1	0.813	4.84	1.05	14.9	0.0385	1.34	0.0764	1.75	1.26	3.78	0.849	2.31	1.2	2.59
OCc1ccc(-c2ccc(-c3ccc(CO)o3)[se]2)o1	> 79	> 100	> 100	> 100	> 95.3	> 100	69.1	> 100	> 60.9	> 100	> 91.9	> 100	5.53	> 100	> 84.5	> 100	46.4	> 100	35.4	> 100
